Values quoted from earlier work as cited in patent publication US20160271085A1 (priority 2015, published 2016).

How the values were obtained:
[1] = test system: amyotrophic lateral sclerosis; settings: ALS
injured sciatic nerves = settings: addition of lactate; response did not occur in an atmosphere of nitrogen
[2] = oral, ingested

With `Nc1nc2ccc(OC(F)(F)F)cc2s1` [Riluzole] as the compound, how does the “progress of the disease” value [1] read?
The value was “appears to slow the progress of the disease”.

For `CC(O)C(=O)O` (stereo not drawn) [lactate], which sustained muscle contraction (injured sciatic nerves) is on record?
The sustained muscle contraction was “enhanced”.

For `CC(O)C(=O)[O-].[Na+]` (stereo not drawn) [sodium lactate, Sodium lactate], which serum lactate levels [2] is on record?
Its serum lactate levels is “significantly elevate serum lactate levels”.
